In US20190240297A1, “TREATMENT OF INFLAMMATORY BOWEL DISEASE” (UNIVERSITÉ LAVAL, priority 2016, published 2019):

How the values were obtained:
[1] = system: IEC monolayers; assay: In vitro intestinal permeability assay (FITC-dextran) on DSS-treated IEC monolayers; assay type: cell-based, mouse; settings: WT and Entpd8-/- IEC, DSS 3% 24 hours; 10 μM added 6 hours after DSS for last 18 hours (FIG. 14A)
Excerpt: (§1) Human colon pieces were recuperated and washed several times with D-PBS containing Fetal Bovine Serum (FBS), antibiotics, antifungal and gentamycin until the solution is clear. Epithelial unit containing stem cells (crypts) were isolated from human samples (as prepared above) or from the intestine of 10-12 weeks old mice by dissection and dissociated with collagenase type I (collagenase XI, DTT and dispase for human). Briefly, the longitudinal muscle layer from the colons were excised, washed with ice-cold Mg^2+ and Ca^2+ free Salt Solution (PBS) and then digested with 75 U/mL collagenase type I or collagenase XI. The digestion was stopped with Dulbecco's Modified Eagles Medium (DMEM/F12) containing 10% v/v foetal bovine serum (FBS). L-glutamine, Hepes. […]
(§2) In other experiments, murine IEC were grown on permeable supports, stimulated on the apical chamber with DSS 3% for 6 hours then the P2Y6 antagonist MRS 2578 (10 μM) was added for the following 18 hours. The supernatant from basolateral chamber was collected and KC secretion was evaluated by Elisa.
Intestinal permeability was assessed with fluorescein-labeled dextran (FITC-dextran) as described previously with some modification (Ashleigh Hansen 2013). […] 4 hours later, samples were taken from the bottom chambers and fluorescence intensity in the samples was measured. Data were expressed as total quantity of dextran-FITC in supernatant.

[2] = system: DSS-induced colitis; assay: DSS-induced acute colitis, disease activity index (DAI) after intrarectal injection; assay type: in vivo, mouse
Protocol: (§3) All mice were treated or not (control mice) with 3% (w/v) DSS (molecular weight: 42 kDa) added to the drinking water for 7 days. Disease activity index (DAI) was evaluated daily by scoring percent of weight loss, intestinal bleeding (no blood, presence of blood), and stool consistency (normal stool, loose stool, or diarrhea) as previously described (Berberat P, 2005). For intrarectal injection mice were anesthetized and stool that may be present in distal colon was removed with pressure by fingertips to the posterior end of the animal. A 5F infant feeding tube catheter was inserted 4 cm (measured from the midway point between the 2 catheter side ports) into the colon. At this point, 100 μL of P2Y6 antagonist (MRS 2578 CAS number 711019-86-2, 10 μM), apyrase (4 Units/mice) or their vehicles DMSO or PBS respectively was administered slowly. Following the injection of the solution, animals were positioned head-down for 90 sec to avoid loss of the injected solution. Mice were euthanized 8 hr after the last intrarectal injection, tissue and plasma were isolated for experimental outcomes.

[3] = system: DSS-induced colitis; assay: In vivo intestinal permeability assay (FITC-dextran flux from intestine to plasma) in DSS-treated mice; set-up: species or system mouse
Protocol: as §3, with “For” for “All mice were treated or not (control mice) with 3% (w/v) DSS (molecular weight: 42 kDa) added to the drinking water for 7 days. Disease activity index (DAI) was evaluated daily by scoring percent of weight loss, intestinal bleeding (no blood, presence of blood), and stool consistency (normal stool, loose stool, or diarrhea) as previously described (Berberat P, 2005). For”
Intestinal permeability was assessed with fluorescein-labeled dextran (FITC-dextran) as described previously with some modification (Ashleigh Hansen, 2013). All mice were administrated by oral gavage with FITC-dextran (60 mg/[…] of mouse) 4 h after the intrarectal injection of MRS 2578, apyrase or vehicle (DMSO or PBS). Another 4 hours later, mice were euthanized and whole blood was obtained by cardiac puncture. Plasma was isolated and the movement of FITC-flux from colonic lumen into the plasma was measured by fluorometry at 488 nm. Data are expressed as total quantity of dextran-FITC in 100 μl of plasma.

[4] = system: IEC; assay: KC secretion by DSS-treated IEC (ELISA of basolateral supernatant); assay type: cell-based, mouse; settings: WT and Entpd8-/- IEC, DSS 3% 24 hours; 10 μM added 6 hours after DSS for last 18 hours (FIG. 14B)
Excerpt: as §1, with “Hepes. N-2 supplement, B-27 supplement and antibiotics. The digestion mixture was filtered with 70 μm filter and the effluent was centrifuged twice at 50×g for 5 min at 4° C.” for “Hepes.”
as §2, with “Elisa. […]” for “Elisa.”

[5] = molecular target: T1, P2Y6 receptor (Mus musculus, UniProt Q9ERK9); assay: UDP stimulation of murine differentiated IEC, KC expression by qPCR; assay type: cell-based; settings: 100 μM for 5 hours (FIG. 13A)
T1 construct: endogenous in cells; host or cells: primary differentiated intestinal epithelial cells from colon crypts of WT and Entpd8-/- mice
Excerpt: as §1, with “Hepes. N-2 supplement, B-27 supplement and antibiotics. The digestion mixture was filtered with 70 μm filter and the effluent was centrifuged twice at 50×g for 5 min at 4° C.” for “Hepes.”
(§4) Murine and human differentiated IEC were grown on plates and stimulated with UDP (100 μM) for 5 hours then the expression of KC (for mouse) and CXCL8 (for human) were evaluated by qPCR.
(§5) Genomic DNA was extracted from the tail of WT and Entpd8^−/− mice using Direct PCR Lysis Reagent to perform PCR using specific primers for NTPDase8 gene and neomycin as mentioned above. […] Primer sequences for cytokine analysed were purchased from Qiagen.

[6] = molecular target: T2, P2Y6 receptor (Homo sapiens, UniProt Q15077); assay: UDP stimulation of human differentiated IEC, CXCL8 expression by qPCR; assay type: cell-based; settings: 100 μM for 5 hours, 1 patient (FIG. 13B)
T2 construct: endogenous in cells; host or cells: primary differentiated intestinal epithelial cells from human colon crypts (1 patient)
Excerpt: as §1, with “Hepes. N-2 supplement, B-27 supplement and antibiotics. The digestion mixture was filtered with 70 μm filter and the effluent was centrifuged twice at 50×g for 5 min at 4° C.” for “Hepes.”
as §4, §5

T2 sequence (Q15077 whole entry): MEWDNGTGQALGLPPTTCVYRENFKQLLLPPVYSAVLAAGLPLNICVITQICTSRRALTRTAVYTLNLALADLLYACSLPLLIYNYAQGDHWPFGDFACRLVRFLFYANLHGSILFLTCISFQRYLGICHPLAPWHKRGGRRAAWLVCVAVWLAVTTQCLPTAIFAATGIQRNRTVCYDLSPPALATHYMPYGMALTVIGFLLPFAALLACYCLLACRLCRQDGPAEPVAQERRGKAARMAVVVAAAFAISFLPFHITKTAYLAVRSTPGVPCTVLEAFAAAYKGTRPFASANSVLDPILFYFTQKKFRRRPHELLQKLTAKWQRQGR
T1 sequence (Q9ERK9 whole entry): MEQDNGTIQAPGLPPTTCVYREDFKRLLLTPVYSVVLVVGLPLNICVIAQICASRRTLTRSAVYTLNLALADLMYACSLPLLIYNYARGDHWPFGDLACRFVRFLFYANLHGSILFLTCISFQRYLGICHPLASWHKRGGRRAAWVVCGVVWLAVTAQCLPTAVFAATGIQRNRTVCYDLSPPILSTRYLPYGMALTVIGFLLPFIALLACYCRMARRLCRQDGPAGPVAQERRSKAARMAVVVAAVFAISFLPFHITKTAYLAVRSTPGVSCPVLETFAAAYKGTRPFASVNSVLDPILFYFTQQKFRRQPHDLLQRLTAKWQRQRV

In the case of `S=C=Nc1cccc(NC(=S)NCCCCNC(=S)Nc2cccc(N=C=S)c2)c1` [MRS 2578], the “Epithelial permeability (FITC-dextran in basolateral chamber)” value [1] is reported as “decreasing epithelial permeability”, the “Disease activity index (DAI) / inflammation” value ([2]; Entpd8-/- mice, 3% DSS 7 days, 10 μM intrarectally daily day 2 to day 7, vs DSS alone (FIG. 10A)) is reported as “reduced inflammation and the DAI” and the “Disease activity index (DAI) / inflammation” value ([2]; WT mice, 3% DSS 7 days, 10 μM intrarectally daily day 2 to day 7, vs DSS alone (FIG. 10C)) is reported as “reduced inflammation and the DAI”. For the same molecule, the “Intestinal permeability, FITC-dextran flux from intestine to plasma” value ([3]; Entpd8-/- and WT mice, day 7, 10 μM intrarectally day 2 to day 7 (FIG. 10B, D)) was “significantly ameliorated the permeability” and the “KC (chemokine) secretion” value [4] was “decreasing epithelial permeability and chemokines secretion”.
With `O=c1ccn([C@@H]2O[C@H](COP(=O)(O)OP(=O)(O)O)[C@@H](O)[C@H]2O)c(=O)[nH]1` [UDP] the “KC expression (mRNA)” value [5] was “significant increase” and the “CXCL8 expression (mRNA)” value [6] was “significant increase”.
In the case of apyrase, the “Protection from colitis as determined by DAI” value ([2]; WT mice, DSS, 4 U/mice intrarectally daily day 2 to day 7, vs PBS (FIG. 11A)) is reported as “fully protected”, the “Disease activity index (DAI) / inflammation” value ([2]; WT mice, DSS, 4 U/mice intrarectally in late phase, day 5 to day 7, vs PBS (FIG. 11C)) is reported as “reduced inflammation” and the “Protection from colitis as determined by permeability measurements” value ([3]; WT mice, 4 U/mice intrarectally daily day 2 to day 7, vs PBS (FIG. 11B)) is reported as “fully protected”.
